We go through four molecules from US20240075243A1, “REUSABLE HYDROPHILIC URINARY CATHETER ASSEMBLY” (WELLSPECT AB, priority 2021, published 2024).

The test system of the assay is E. coli. Briefly: Disinfection effect of hydration liquids on catheters immersed in E. coli suspension. Format: cell-based. As to conditions: 4 hours immersion, incubated at 37 deg. C for 19.5 hours. The source says: In another line of experiments, hydration liquids with different types of disinfection mediums were used, and evaluated in respect of the disinfection effect. The hydration liquid comprised 5 wt % of PVP K30, and various disinfection mediums. As comparative examples, a hydration liquid with PVP K30 but without any disinfection medium was used, as well as a hydration liquid only comprising water. For the tests, catheters were first activated in a hydration liquid containing a disinfectant. Thereafter, the catheters were immersed in an E. coli suspension. The catheters were then rinsed in plain water, before again being immersed in the same hydration liquid used for the activation for 4 hours. Thereafter, the catheters were transferred into a growth medium and incubated at 37 deg. C for 19.5 hours. After this, it was determined whether, or not, bacterial growth had occurred during incubation.

Turning to `Oc1cc(Cl)ccc1Oc1ccc(Cl)cc1Cl` [Triclosan, triclosan], the Result after incubation entry by setting is: (disinfection medium 0.075 wt % in hydration liquid with 5 wt % PVP K30) “No growth”; (disinfection medium 0.3 wt % in hydration liquid with 5 wt % PVP K30) “No growth”.
On to `O=[N+]([O-])[O-].[Ag+]` [Silver nitrate, silver nitrate], for which the Result after incubation entry runs as follows: (disinfection medium 0.05 wt % in hydration liquid with 5 wt % PVP K30) “No growth”; (disinfection medium 0.2 wt % in hydration liquid with 5 wt % PVP K30) “No growth”.
Consider benzalkonium chloride, for which the Result after incubation entry (disinfection medium 0.025 wt % in hydration liquid with 5 wt % PVP K30) is “No growth” and the Result after incubation result (disinfection medium 0.1 wt % in hydration liquid with 5 wt % PVP K30) is given as “No growth”.
Regarding `OCl` [Sodium hypochlorite, sodium hypochlorite], under “disinfection medium 0.02 wt % in hydration liquid with 5 wt % PVP K30”, the Result after incubation result is “No growth”.
